The values that follow come from PubChem BioAssay (NCI).

Structures are written as SMILES. Several values for one entry are separate records, joined by “and”; a condition that tells them apart may be missing. Equal values may be shown once.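 How tested: cells in 96-well plates exposed to compound for 48 hours at five concentrations. GI50 marks 50% less growth. At the TGI there is no net growth.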 A value given as a limit tells only on which side of the number the result lay.

This assay deals with MDA-MB-468 breast. The assay can be described thus: inhibition of tumour cell growth, NCI panel, 48 h.

Turning to `Cc1cc(N/N=C/c2nc(-c3ccc(Br)cc3)oc2C)c2cc(Br)ccc2n1`, the GI50 is 1750 nM and the TGI came to 4850 nM.

On to `COc1cc2ncn(-c3cc(OCCc4ccccc4)c(C(N)=O)s3)c2cc1OC`, for which the GI50 was 3350 nM and the TGI turned out to be 24200 nM.

For the compound `CC(=O)O[C@H](C[C@H](C(C)C)N(C)C(=O)[C@@H](NC(=O)[C@H]1CCCCN1C)C(C)C)c1nc(C(=O)N[C@@H](Cc2ccccc2)C[C@H](C)C(=O)O)c(CCOCc2ccccc2)s1`, the GI50 is less than 1 nM and the TGI was more than 10000 nM.

For the compound `COc1cc2c(c(OC)n1)[C@]1(O)[C@H](O)[C@H](CN(C)C)[C@@H](c3ccccc3)[C@]1(c1ccc(C#N)cc1)O2`, the GI50 was < 15.7 nM and 15.8 nM; the TGI was 482 nM and 1440 nM.

Consider `COc1cc2c3c(n(CCCN4CCC[C@H]4C(N)=O)c(=O)c2cc1OC)-c1cc2c(cc1C3=O)OCO2`, for which the GI50 was 45.6 nM and the TGI was 316 nM.

As to `Cn1cc(C2=C(c3cn(CCCCCN)c4ccccc34)C(=O)NC2=O)c2ccccc21`, the GI50 was 7540 nM and the TGI was more than 25000 nM.

With `COCCOc1cnc2ccn([C@H](C)c3nnc4c(F)cc(-c5cnn(C)c5)cn34)c(=O)c2c1`, the GI50 is more than 100000 nM and the TGI is more than 100000 nM.

Consider `C[C@]12CC[C@@H]3c4ccc(O)cc4CC[C@H]3[C@@H]1CC[C@@H]2NS(=O)(=O)c1cccc(F)c1`, for which the GI50 was 2420 nM and the TGI worked out at 9250 nM.

For the compound `COc1cc(OC)c(S(N)(=O)=O)cc1C(=O)/C=C/c1ccc(Cl)cc1`, the GI50 is 1450 nM and the TGI was found to be 3080 nM.

Take `O=C(O)c1ccc(-n2c(=O)n(-c3cccc(C(F)(F)F)c3)c(=O)c3cc(-c4ccc(F)cc4F)ccc32)cc1`: the GI50 was 2160 nM and the TGI was determined as 5940 nM.

On to `COc1cc(C2=C(c3cn(C)c4ccccc34)COC2=O)cc(OC)c1OC`, for which the GI50 was 31.9 nM and the TGI worked out at 380 nM.

With `CCC(C)(C)c1ccc(OCCCCCCN2CCNCC2)cc1`, the GI50 is 1760 nM and the TGI is 3470 nM.

`O=C(Nc1ccc(-n2cc(-c3ccncc3)c(-c3ccc(Cl)c(O)c3)n2)cc1)Nc1ccc(Cl)c(C(F)(F)F)c1`: the GI50 was 1460 nM and the TGI came to 3400 nM.

For the compound `CN1CCN(c2ccc(Nc3nc(NCCCNS(=O)(=O)c4ccc(Cl)cc4)c4sccc4n3)cc2)CC1`, the GI50 was 4030 nM and the TGI was determined as 16300 nM.

In the case of `CCc1ccccc1NC(=O)c1sc2nc3c(cc2c1N)C(=O)CCC3`, the GI50 was 235 nM and the TGI came to 44700 nM.

`O=[N+]([O-])c1ccc2c(c1)C(c1ccccc1Cl)=Nc1cn[nH]c1N2`: the GI50 was 12500 nM and the TGI was more than 25000 nM.

Regarding `COc1ccc2c(c1)C(C)Cc1c(ncnc1-n1c(C)nc3ccccc31)N2C` (stereo unspecified), the GI50 was 3050 nM and the TGI came to 20500 nM.

Consider `Cc1ccc(S(=O)(=O)NCCNc2nccc(-c3c(-c4ccc(F)cc4)nc4sccn34)n2)cc1`, for which the GI50 is 4200 nM and the TGI is more than 100000 nM.

For `NC(CS/C(Cl)=C/Cl)C(=O)O` (stereo unspecified), the GI50 was 2990 nM and the TGI was determined as 16700 nM.

In the case of `COc1ccc(-c2oc3cc(O)c(OC)c(O)c3c(=O)c2OC)cc1O`, the GI50 is 312 nM and the TGI came out at 4140 nM.

As for `CC(C)N=c1cc2n(-c3ccc(Cl)cc3)c3ccccc3nc-2cc1Nc1ccc(Cl)cc1`, the GI50 is 560 nM and the TGI turned out to be 1670 nM.

In the case of `Nc1nc(SN=Nc2ccc(S(N)(=O)=O)cc2)c2[nH]cnc2n1`, the GI50 was 284 nM and the TGI came to 4110 nM.

On to `Cc1cc[c-]cc1.Fc1c[c-]c(-c2ccccn2)c(F)c1.[Pt+2].c1ccc(P(C[PH+](c2ccccc2)c2ccccc2)c2ccccc2)cc1`, for which the GI50 is 1550 nM and the TGI turned out to be 5550 nM.

Take `NC(N)=NCCCCCNc1noc(Cc2c[nH]c3cc(Br)ccc23)n1`: the GI50 was 2010 nM and the TGI came to 7040 nM.

On to `C[C@]12CCc3nc(Nc4ccccc4)sc3C1=CC[C@@H]1[C@@H]2CC[C@]2(C)/C(=N/NC(N)=S)CC[C@@H]12`, for which the GI50 is 1870 nM and the TGI was 5380 nM.

As to `O=C(/C=C/c1cc(CN2CCOCC2)c(O)c2ncccc12)c1cc(CN2CCOCC2)c(O)c2ncccc12`, the GI50 is 34.6 nM and the TGI is 683 nM.

`O=C(Nc1ccc(Br)cc1)c1ccc(Cl)c(Cl)c1`: the GI50 was 7500 nM and the TGI is more than 100000 nM.

Regarding `CC(C)S(=O)(=O)c1ccccc1Nc1nc(Nc2cccc(NC(=O)CN)c2)ncc1Cl`, the GI50 was 99.9 nM and the TGI was 1860 nM.

Consider `COc1ccc2ncn(-c3cc(O[C@H](C)c4ccccc4Cl)c(C(N)=O)s3)c2c1`, for which the GI50 is 6.67 nM and the TGI turned out to be 40 nM.

For `O=C(COc1ccc(/C=C2\CSc3ccccc3C2=O)cc1)Nc1nccs1`, the GI50 was 1840 nM and the TGI came to 4000 nM.

Consider `C=C1C(=O)O[C@H]2[C@H]1CC/C(COC(=O)c1ccc(Cl)nc1)=C\CC[C@@]1(C)O[C@@H]21`, for which the GI50 was 1210 nM and the TGI was found to be 3500 nM.

Consider `CN(CCCNC(=O)Cc1ccc2ccc3cccc4ccc1c2c34)CCCNc1cc(-c2ccc3ccccc3c2)nc2ccccc12`, for which the GI50 was 1420 nM and the TGI amounted to 2750 nM.

For `CCn1c(CO)nn(-c2cc(O[C@@H](C)C(F)(F)F)c(C(=O)Nc3c(F)cccc3Cl)cc2F)c1=O`, the GI50 is 3280 nM and the TGI is more than 72300 nM.
